{"source": "patent US20180125073A1", "about": "“PESTICIDAL COMPOSITIONS AND RELATED METHODS” (priority 2015, published 2018)", "tested_on": "green peach aphids (Myzus persicae)", "experiment": "Pesticidal activity against green peach aphid on cabbage plants after soil treatment", "assay_type": "in vivo", "settings": "no surfactant added", "protocol": "Each tested compositions was prepared by mixing a predetermined amount of the CLOSER® SC insecticide (a sulfoxaflor concentrate having a sulfoxaflor concentration of 240 g/L) with a predetermined amount of the selected nonionic surfactant in an aqueous medium. Two nonionic surfactants were used in the study: alkyl polyglycoside AGNIQUE® PG 8107 surfactant from Cognis Corporation (C8-C10 alkyl polyglycoside with degree of polymer of 1.7), and PEG-3 tridecyl alcohol ether MAKON® TD3 surfactant from Stepan Company.\nFor example, the “Sulfoxaflor at 100 ppm” composition contained about 0.043% weight of sulfoxaflor based on the total weight of the composition (i.e., 100 ppm of sulfoxaflor per one gram of final soil mixture). “Sulfoxaflor at 100 ppm+AGNIQUE®” composition contained about 0.043% weight of sulfoxaflor based on the total weight of the composition (i.e., 100 ppm of sulfoxaflor per one gram of final soil mixture), and about 0.225% weight of alkyl polyglycoside AGNIQUE® PG 8107 surfactant based on the total weight of the composition (i.e., 384 ppm per one gram of the final soil mixture; 1500 ppm per one gram of the total soil liquid).\nThe imidacloprid pesticide PROVADO® 1.6 from Bayer CropScience LP (North Carolina, USA) was used as a standard commercial pesticidal composition for aphid control. The imidacloprid pesticide PROVADO® 1.6 was tested at three different loadings: 100 ppm, 25 ppm, and 6.25 ppm per gram of final soil mixture.\nIn this EXAMPLE 7, water was tested as a control composition. Furthermore, an aqueous solution of alkyl polyglycoside AGNIQUE® PG 8107 surfactant and an aqueous solution of PEG-3 tridecyl alcohol ether MAKON® TD3 surfactant were tested. […]\nEach of the 1-ounce clear cups was filled with about 30 grams of the inoculated Midwest field soil having the components as shown in TABLE 7. […] The soil moisture of the Midwest field soil was about 15% as measured by Mettler LJ16 Moisture Analyzer (15 minutes and 100° C.). […]", "data": [{"smiles": "C[C@@H](c1ccc(C(F)(F)F)nc1)[S@@](C)(=O)=NC#N", "note": "(racemic) [Sulfoxaflor, [methyl(oxo) {1-[6-(trifluoromethyl)-3-pyridyl]ethyl}-λ^6-sulfanylidene]cyanamide]", "values": [{"measurement": "number of live GPA aphids on cabbage plant", "setting": "DAT of 21 days, loading 6.25 ppm", "result": "about 38"}, {"measurement": "number of live GPA aphids on cabbage plant", "setting": "DAT of 21 days, loading 100 ppm per gram of final soil mixture", "result": "no live GPA aphid"}, {"measurement": "number of live GPA aphids on cabbage plant", "setting": "DAT of 28 days, sulfoxaflor 100 ppm", "result": "no live GPA aphid"}]}]}
